Measurements taken from patent publication US20030055106A1, “Therapeutic uses of peroxometallic compounds” (priority 1999, published 2003).

How the values were obtained:
[1] = test system: vitelline membrane of chick embryos; experiment: Embryonic vascularization test (EVT) ex ovo; type: in vivo
Text: FIG. 2: A and B show an anti-angiogenic response to bpV(phen), orthovanadate (Van) and protamine (Prot) using a vascularization test on the vitelline membrane of chick embryos. Each point represents a minimum of 15 embryos (15 to 28).
The normal development of a chick embryo involves the formation of an external vascular system which is located in the vitelline membrane and which carries nutrients from the vitellus (yolk of the egg) to the developing embryo. When placed onto the vitelline membrane, anti-angiogenic substances can inhibit blood vessel development in the vitelline membrane. To facilitate access to the vitelline membrane, chick embryos were transferred to a sterile culture box (Petri dish) and placed in a humidity- and temperature-controlled incubator. Embryos could then develop in this ex ovo condition for several days.
An aliquot of the tested compound was mixed with a methylcellulose solution and allowed to air-dry into thin discs. Methylcellulose forms an inert matrix from which the tested compound can diffuse slowly. Methylcellulose discs containing the tested compound were placed on the external border of the vascular perimeter of the vitelline membrane where the angiogenic process was still active.
The effects of the discs containing the tested compound on proximal vascular development were, in all cases, compared with those of discs containing control buffer. The discs were placed on the embryos' vitelline membrane on Day 0 or Day 1 of the ex ovo growth process; at this point, only beginnings of the main blood vessels are invading the vitellus. The embryos were then put in culture conditions until vascularization was assessed (approximately 24 h). Control buffer- and compound-containing discs were in all cases added simultaneously on the vitelline membrane of the same embryo. Both discs were arranged in a symmetrical fashion with respect to the cephalo-caudal axis of the embryo in order to minimize inter-individual variations when comparing the tested compounds with controls.
[…] After one day in culture, the level of vascularization in the area covered by the discs was graded by a pair of scientists in the usual blind fashion. To facilitate the location of the discs, black O-rings were placed around them just after their placement on the vitelline membrane. The evaluation scale for the EVTs was based on two different scoring systems.
Blood vessel formation was assessed in a blind fashion. The areas of the vitelline membranes that lay beneath the methylcellulose discs were scored for the degree of vascularization, using two scoring systems (“N/+” or “1-2-3”). The following selection criteria were used:
A score of “N” for “Normal” was attributed when all the following conditions were met:
Blood vessels in the evaluated area grew along their path with no abnormal deviation. Collateral branching density was normal and the growth path of the lateral branches was also normal.
A score of “+” was attributed when at least one of the following conditions was met:
1-2-3 Grading Scale System:
A score of 3 was attributed when the following conditions were met:
A score of 2 was attributed when at least one of the following conditions was met:
A score of 1 was attributed when at least one of the following conditions was met:
A score of 3 meant that blood vessel development was normal whereas a score of 1 indicated the greatest degree of angiostatic activity.

murine B10R macrophages = experiment: Chemokine mRNA expression (RNase protection); type: cell-based
Protocol: FIG. 9: Effect of bpV(phen) on chemokine mRNA expression in murine B10R macrophages. (A) Cells were incubated for 2 h with or without various concentrations of bpV(phen) (1-50 μM). Total RNA was isolated and analyzed by RNase protection. (B) Kinetic expression of chemokine genes in murine BIOR macrophages. Cells were incubated for increasing period of time (1-4 h) with or without bpV(phen) at 10 μM. Following extraction of total RNA, RNase protection assay was performed. Free RNA probe is shown in the far left lane. The fold increase was calculated from the densitometry of the autoradiogam.
Various concentrations of bpv(phen) were added to B10R macrophages for4 h. mRNA expression was measured by RNase protection assays. RANTES, MIP-1a/β MIP-2, IP-10 and MCP-1 chemokine mRNA levels increased in response to bpv(phen) (FIG. 9A). MCP-1, MIP-2, MIP-1β and RANTES were induced by the addition of bpv(phen) in a dose-dependent manner whereas IP-10 and MIP-1a were expressed at markedly lower concentrations (10 μM).
To determine the kinetics of chemokine expression following pV compound treatment, B10R macrophages were incubated with 10 ?M bpV(phen) for increasing time intervals. Total RNA was extracted from macrophages at various time-points and subjected to RNase protection assay. […] Thus, conditions for the induction of chemokine expression in response to bpV(phen) seems to vary with the different chemokines.

[2] = test system: ZR-75 breast cancer cells; experiment: In vitro collagen-fibrin tumor progression model, ZR-75; type: cell-based, human
Text: FIG. 12: Illustration of the antitumor activity of bpV(phen) in vitro using ZR-75 breast cancer cells. Experiments were done as described for the FIG. 11 except that DMEM medium having a high glucose concentration and without phenol red was used. 10% FBS was used instead of 5% FBS. The media was supplemented with 10^−9 M estradiol (final concentration).
The cells embedded in the collagen gel, grew as a “primary tumor”. Some cells migrated from the primary tumor towards the fibrin gel, forming front edges. […] Their extension and numbers are representative of the invasive potential of the cancer cells.

Question: `O.O.O.OO.OO.[K+].[OH-].[V].c1cnc2c(c1)ccc1cccnc12` [bpV(phen), potassium bisperoxo(1,10-phenanthroline)oxovanadate] was tested. Which “Anti-angio.activity 1 to 3 (1: no angiogenesis; 3: normal angiogenesis)” value ([1]; 0.001 μg, Assay 1) did it give?
Answer: The value was 2.7.

Question: What about the “Anti-angio.activity % (proportion of embryos showing an anti-angiogenic response)” value (“Anti-angio.activity %” below) ([1]; 0.001 μg, Assay 1) of the same compound?
Answer: Its value is 12%.

Question: And the “Anti-angio.activity 1 to 3 (1: no angiogenesis; 3: normal angiogenesis)” value ([1]; 0.001 μg, Assay 2)?
Answer: The value was 2.4.

Question: And the “Anti-angio.activity %” value ([1]; 0.001 μg, Assay 2)?
Answer: The value was 20%.

Question: What about the “Anti-angio.activity 1 to 3 (1: no angiogenesis; 3: normal angiogenesis)” value ([1]; 0.001 μg, Assay 5) of the same compound?
Answer: The value was 2.6.

Question: What about the “Anti-angio.activity %” value ([1]; 0.001 μg, Assay 5) of the same compound?
Answer: The value was 16%.

Question: What about the “Anti-angio.activity 1 to 3 (1: no angiogenesis; 3: normal angiogenesis)” value ([1]; 0.01 μg, Assay 1) of the same compound?
Answer: Its value is 2.3.

Question: And the “Anti-angio.activity %” value ([1]; 0.01 μg, Assay 1)?
Answer: Its value is 31%.

Question: What about the “Anti-angio.activity 1 to 3 (1: no angiogenesis; 3: normal angiogenesis)” value ([1]; 0.01 μg, Assay 2) of the same compound?
Answer: Its value is 2.5.

Question: And the “Anti-angio.activity %” value ([1]; 0.01 μg, Assay 2)?
Answer: Its value is 19%.

Question: What about the “Anti-angio.activity 1 to 3 (1: no angiogenesis; 3: normal angiogenesis)” value ([1]; 0.01 μg, Assay 5) of the same compound?
Answer: The value was 2.4.

Question: And the “Anti-angio.activity %” value ([1]; 0.01 μg, Assay 5)?
Answer: The value was 25%.

Question: And the “Anti-angio.activity 1 to 3 (1: no angiogenesis; 3: normal angiogenesis)” value ([1]; 0.1 μg, Assay 1)?
Answer: The value was 1.8.

Question: What about the “Anti-angio.activity %” value ([1]; 0.1 μg, Assay 1) of the same compound?
Answer: The value was 61%.

Question: And the “Anti-angio.activity 1 to 3 (1: no angiogenesis; 3: normal angiogenesis)” value ([1]; 0.1 μg, Assay 2)?
Answer: The value was 2.2.

Question: What about the “Anti-angio.activity %” value ([1]; 0.1 μg, Assay 2) of the same compound?
Answer: The value was 45%.

Question: What about the “Anti-angio.activity 1 to 3 (1: no angiogenesis; 3: normal angiogenesis)” value ([1]; 0.1 μg, Assay 5) of the same compound?
Answer: The value was 2.0.

Question: And the “Anti-angio.activity %” value ([1]; 0.1 μg, Assay 5)?
Answer: The value was 53%.

Question: What about the “Anti-angio.activity 1 to 3 (1: no angiogenesis; 3: normal angiogenesis)” value ([1]; 1 μg, Assay 1) of the same compound?
Answer: Its value is 1.6.

Question: And the “Anti-angio.activity %” value ([1]; 1 μg, Assay 1)?
Answer: The value was 86%.

Question: What about the “Anti-angio.activity 1 to 3 (1: no angiogenesis; 3: normal angiogenesis)” value ([1]; 1 μg, Assay 2) of the same compound?
Answer: Its value is 1.1.

Question: What about the “Anti-angio.activity %” value ([1]; 1 μg, Assay 2) of the same compound?
Answer: The value was 100%.

Question: And the “Anti-angio.activity 1 to 3 (1: no angiogenesis; 3: normal angiogenesis)” value ([1]; 1 μg, Assay 4)?
Answer: The value was 1.0.

Question: And the “Anti-angio.activity %” value ([1]; 1 μg, Assay 4)?
Answer: Its value is 96%.

Question: And the “Anti-angio.activity 1 to 3 (1: no angiogenesis; 3: normal angiogenesis)” value ([1]; 1 μg, Assay 5)?
Answer: The value was 1.2.

Question: And the “Anti-angio.activity %” value ([1]; 1 μg, Assay 5)?
Answer: The value was 94%.

Question: And the “approximate IC50, neovascularization (regardless of the scoring system)” value ([1]; per methylcellulose disc)?
Answer: The value was about 0.1 µg.

Question: What about the “most effective dose for the induction of chemokine gene expression” value (murine B10R macrophages) of the same compound?
Answer: Its value is 10 µM.

Question: What about the “expression of RANTES mRNA” value (murine B10R macrophages; 10 μM bpV(phen)) of the same compound?
Answer: Its value is “increased in a time-dependent manner over 24 h”.

Question: What about the “time of maximum levels of MIP-1a, MIP-2, IP-10, and MCP-1 chemokines mRNA” value (murine B10R macrophages; 10 μM bpV(phen)) of the same compound?
Answer: Its value is 4 h.

Question: And the “time of optimal expression of MIP-1β mRNA” value (murine B10R macrophages; 10 μM bpV(phen))?
Answer: The value was 8 h.

Question: And the “RANTES, MIP-1a/β MIP-2, IP-10 and MCP-1 chemokine mRNA levels” value (murine B10R macrophages; various concentrations (1-50 μM))?
Answer: The value was “increased”.

Question: And the “progression of ZR-75-1 cells (primary and secondary tumors)” value ([2]; 2 μM)?
Answer: Its value is “restricted the growth of the primary tumor”.

Question: And the “progression of ZR-75-1 cells (primary and secondary tumors)” value ([2]; 5 and 10 μM)?
Answer: The value was “there were no secondary tumors and the primary tumor had a lower cell density”.
